Results: patent US9489013B2, “C6-azaspiro iminothiadiazine dioxides as bace inhibitors, compositions, and their use” (Merck Sharp & Dohme Corp., priority 2012, dated 2016)
pKi: −log10 of the molar value. Read-outs that look alike come from different tables or passages of the source.

Tests used:
[1] = target: soluble human BACE1 catalytic domain (Homo sapiens (Human), UniProt P56817); experiment: BACE1 HTRF FRET Assay; format: biochemical; details: Ki calculated from IC50 using the Cheng-Prusoff equation; QSY7-APPswe-Eu substrate, pH 5.0
Sequence of soluble human BACE1 catalytic domain (P56817 75-416): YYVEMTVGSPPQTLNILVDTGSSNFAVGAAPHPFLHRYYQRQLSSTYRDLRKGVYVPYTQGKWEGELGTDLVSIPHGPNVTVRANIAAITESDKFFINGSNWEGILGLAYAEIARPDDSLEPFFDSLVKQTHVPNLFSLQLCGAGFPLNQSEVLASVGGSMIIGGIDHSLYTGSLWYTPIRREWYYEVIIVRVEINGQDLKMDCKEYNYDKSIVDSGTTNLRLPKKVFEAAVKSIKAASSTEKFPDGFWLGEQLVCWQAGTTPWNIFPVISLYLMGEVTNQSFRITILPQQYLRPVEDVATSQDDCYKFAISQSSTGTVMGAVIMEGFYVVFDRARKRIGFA
Protocol: A homogeneous time-resolved FRET assay can be used to determine IC50 values for inhibitors of the soluble human BACE1 catalytic domain. […] This substrate contains an N-terminal QSY7 moiety that serves as a quencher of the C-terminal Europium fluorophore (620 nm Em). […] Inhibition of BACE cleavage of the QSY7-APP^swe-Eu substrate by inhibitors is manifested as a suppression of 620 nm fluorescence. […] The reactions are incubated at 30° C. for 1.5 hours. The 620 nm fluorescence is then read on a Rubystar HTRF plate reader (BMG Labtechnologies) using a 50 millisecond delay followed by a 400 millisecond acquisition time window. Inhibitor IC50 values are derived from non-linear regression analysis of concentration response curves.

[2] = target: purified human autoBACE-2 (Homo sapiens (Human), UniProt Q9Y5Z0); experiment: BACE-2 Assay (BACE-HTRF assay); format: biochemical; details: Ki calculated from IC50 using the Cheng-Prusoff equation, pH 5.0, read-out: BACE2 Ki
Sequence of purified human autoBACE-2 (Q9Y5Z0 63-473 limits assumed): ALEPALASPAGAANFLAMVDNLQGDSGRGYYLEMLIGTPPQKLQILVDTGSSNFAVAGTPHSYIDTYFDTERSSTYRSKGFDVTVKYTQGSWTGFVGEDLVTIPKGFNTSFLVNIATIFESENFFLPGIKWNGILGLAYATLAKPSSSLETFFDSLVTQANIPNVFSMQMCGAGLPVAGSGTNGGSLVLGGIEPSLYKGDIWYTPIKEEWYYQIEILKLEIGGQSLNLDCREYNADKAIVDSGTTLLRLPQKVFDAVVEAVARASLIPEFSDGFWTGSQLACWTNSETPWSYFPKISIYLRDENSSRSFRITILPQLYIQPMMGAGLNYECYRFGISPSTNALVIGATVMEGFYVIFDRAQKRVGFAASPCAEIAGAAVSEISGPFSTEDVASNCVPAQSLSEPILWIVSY
Protocol: Inhibitor IC50's at purified human autoBACE-2 are determined in a time-resolved endpoint proteolysis assay that measures hydrolysis of the QSY7-[…]-Eu-amide FRET peptide substrate (BACE-HTRF assay). […] Inhibitor compounds, prepared at 3× the desired final concentration in 1×BACE assay buffer (20 mM sodium acetate pH 5.0, 10% glycerol, 0.1% Brij-35) supplemented with 7.5% DMSO are pre-incubated with an equal volume of autoBACE-2 enzyme diluted in 1×BACE assay buffer (final enzyme concentration 1 nM) in black 384-well NUNC plates for 30 minutes at 30° C. […] DMSO is present at 5% final concentration in the assay. Following laser excitation of sample wells at 320 nm, the fluorescence signal at 620 nm is collected for 400 ms following a 50 μs delay on a RUBYstar HTRF plate reader (BMG Labtechnologies). Raw RFU data is normalized to maximum (1.0 nM BACE/DMSO) and minimum (no enzyme/DMSO) RFU values. […] The Ki values are calculated from the IC50 using the Cheng-Prusoff equation.

[3] = QSY7-EISEVNLDAEFC-Eu-amide substrate

Structure (SMILES) | pKi [1] | pKi [2, 3] | pKi ([2]; QSY7-[…]-Eu-amide substrate)
COc1ccc(C(=O)Nc2ccc(F)c([C@@]3(C)NC(=N)N(C)S(=O)(=O)[C@@]34CCN(Cc3cscn3)C4)c2)nc1 [Example 8] | 8.52 |  | 
COc1ccc(C(=O)Nc2ccc(F)c([C@@]3(C)NC(=N)N(C)S(=O)(=O)[C@@]34CCN(CC3CCOC3)C4)c2)nc1 (stereo partly shown) [Example 9] | 9.00 | 8.70 | 
COc1ccc(C(=O)Nc2ccc(F)c([C@@]3(C)NC(=N)N(C)S(=O)(=O)[C@@]34CCN(Cc3ccccn3)C4)c2)nc1 [Example 10] | 8.70 |  | 
COc1ccc(C(=O)Nc2ccc(F)c([C@@]3(C)NC(=N)N(C)S(=O)(=O)[C@@]34CCN(Cc3cccnc3)C4)c2)nc1 [Example 11] | 8.70 | 7.92 | 
COc1ccc(C(=O)Nc2ccc(F)c([C@@]3(C)NC(=N)N(C)S(=O)(=O)[C@@]34CCN(CC3CC3)C4)c2)nc1 [Example 12] | 8.70 | 8.15 | 
COc1ccc(C(=O)Nc2ccc(F)c([C@@]3(C)NC(=N)N(C)S(=O)(=O)[C@@]34CCN(Cc3cnco3)C4)c2)nc1 [Example 14] | 8.52 | 8.05 | 
COc1ccc(C(=O)Nc2ccc(F)c([C@@]3(C)NC(=N)N(C)S(=O)(=O)[C@@]34CCN(Cc3cncnc3)C4)c2)nc1 [Example 15] | 8.40 | 7.77 | 
COc1ccc(C(=O)Nc2ccc(F)c([C@@]3(C)NC(=N)N(C)S(=O)(=O)[C@@]34CCN(Cc3cnn(C)c3)C4)c2)nc1 [Example 16] | 8.40 |  | 
COc1ccc(C(=O)Nc2ccc(F)c([C@@]3(C)NC(=N)N(C)S(=O)(=O)[C@@]34CCN(CC3CC(OC)C3)C4)c2)nc1 (stereo partly shown) [Example 17] | 8.40 |  | 
CN1C(=N)N[C@](C)(c2cc(NC(=O)c3ccc(F)cn3)ccc2F)[C@]2(CCN(Cc3ccncc3)C2)S1(=O)=O [Example 29] | 8.10 | 8.05 | 
CN1C(=N)N[C@](C)(c2cc(NC(=O)c3ccc(F)cn3)ccc2F)[C@]2(CCN(Cc3cnco3)C2)S1(=O)=O [Example 30] | 8.40 | 8.30 | 
CN1C(=N)N[C@](C)(c2cc(NC(=O)c3ccc(F)cn3)ccc2F)[C@]2(CCN(CC3CC3)C2)S1(=O)=O [Example 31] | 8.70 | 8.30 | 
CN1C(=N)N[C@](C)(c2cc(NC(=O)c3ccc(F)cn3)ccc2F)[C@]2(CCN(Cc3cscn3)C2)S1(=O)=O [Example 33] | 8.52 | 8.30 | 
COC1CC(CN2CC[C@@]3(C2)[C@@](C)(c2cc(NC(=O)c4ccc(F)cn4)ccc2F)NC(=N)N(C)S3(=O)=O)C1 (stereo partly shown) [Example 34] | 8.22 | 8.00 | 
CN1C(=N)N[C@](C)(c2cc(NC(=O)c3ccc(F)cn3)ccc2F)[C@]2(CCN(Cc3cccnc3)C2)S1(=O)=O [Example 35] | 8.70 | 8.22 | 
CN1C(=N)N[C@](C)(c2cc(NC(=O)c3ccc(F)cn3)ccc2F)[C@]2(CCN(Cc3cocn3)C2)S1(=O)=O [Example 37] | 8.70 | 8.30 | 
CN1C(=N)N[C@](C)(c2cc(NC(=O)c3ccc(F)cn3)ccc2F)[C@]2(CCN(Cc3cncnc3)C2)S1(=O)=O [Example 38] | 8.40 | 8.15 | 
CCCCN1CC[C@@]2(C1)[C@@](C)(c1cc(NC(=O)c3ccc(F)cn3)ccc1F)NC(=N)N(C)S2(=O)=O [Example 39] | 8.70 | 8.52 | 
CN1C(=N)N[C@](C)(c2cc(NC(=O)c3ccc(F)cn3)ccc2F)[C@]2(CCN(Cc3cnn(C)c3)C2)S1(=O)=O [Example 40] | 8.40 | 8.00 | 
CN1C(=N)N[C@](C)(c2cc(NC(=O)c3ccc(F)cn3)ccc2F)[C@]2(CCN(S(=O)(=O)CC3CCCO3)C2)S1(=O)=O (stereo partly shown) [Example 82] | 8.40 | 8.00 | 
CN1C(=N)N[C@](C)(c2cc(NC(=O)c3ccc(F)cn3)ccc2F)[C@@]2(CCN(S(=O)(=O)c3ccccc3)C2)S1(=O)=O [Example 91] | 7.80 | 8.22 | 
COCC(=O)Nc1ccc(F)c([C@@]2(C)NC(=N)N(C)S(=O)(=O)[C@@]23CCN(Cc2ccccc2)C3)c1 [Example 96] | 7.66 |  | 7.60
